The text below walks through data of patent US12139520B2 (priority 2020, dated 2024).

Each structure is given as a SMILES string. Bridge positions count the residues as written; N and C are the ends. Square brackets hold non-standard residues; d marks the D form. Peptide text beside a SMILES is read from it. Hyp = O=C(O)[C@@H]1C[C@@H](O)CN1

In series [1] the target is hAM1 receptor (Homo sapiens, UniProt O60895+Q16602). As to the kind of experiment: cAMP assay for in vitro receptor activation, hAM1-R. Type of series: cell-based. The following applies: cAMP assay, hAM1 receptor; read-out: hAM1R EC50. Put shortly: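 Stable hAM1 cells (monoclonal) plated 8000/well; buffer DPBS, 0.05% casein, 0.5 mM IBMX; cAMP read-out.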
The nature of series [2]: Physical stability of peptide analogues (Thioflavin T fibrillation). It counts as physicochemical. The following applies: maximum ThT signal normalized between hAMY maximum and buffer background; 40° C., shaking, four days; pH 7 per table title. The method, boiled down:
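Samples are stressed at 40 °C for four days, being shaken at 700 rpm before each 10-min fluorescence reading of 4 μM Thioflavin T. Buffers were pH 4 acetate or pH 7 phosphate. Reported values are smoothed maximum ThT signals as a percentage of the hAMY-to-background range.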

hAM1 receptor, sequence (Q16602 23-461): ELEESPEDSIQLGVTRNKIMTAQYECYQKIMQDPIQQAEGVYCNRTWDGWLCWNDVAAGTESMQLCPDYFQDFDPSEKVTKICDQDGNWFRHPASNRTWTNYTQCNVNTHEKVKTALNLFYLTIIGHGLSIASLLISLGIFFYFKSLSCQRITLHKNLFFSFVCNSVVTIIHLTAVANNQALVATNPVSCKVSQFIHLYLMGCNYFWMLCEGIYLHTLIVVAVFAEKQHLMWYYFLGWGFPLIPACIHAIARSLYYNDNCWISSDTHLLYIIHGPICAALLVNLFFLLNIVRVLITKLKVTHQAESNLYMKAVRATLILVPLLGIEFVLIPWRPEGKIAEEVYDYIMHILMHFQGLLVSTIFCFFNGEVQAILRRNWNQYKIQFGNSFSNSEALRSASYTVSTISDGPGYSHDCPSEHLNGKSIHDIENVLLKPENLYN
hAM1 receptor, sequence (O60895 43-175 partner): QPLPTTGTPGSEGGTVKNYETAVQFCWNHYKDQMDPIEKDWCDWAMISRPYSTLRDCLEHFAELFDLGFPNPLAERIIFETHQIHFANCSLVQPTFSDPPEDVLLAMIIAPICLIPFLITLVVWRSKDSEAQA

With `CC[C@H](C)[C@@H]1NC(=O)[C@H](CCCNC(=N)N)NC(=O)[C@@H](NC(=O)CN)CSSC[C@@H](C(=O)N[C@H](C(=O)N[C@H](C(=O)N[C@@H](CCC(N)=O)C(=O)N[C@@H](Cc2c[nH]c3ccccc23)C(=O)N[C@@H](CC(C)C)C(=O)N[C@@H](C)C(=O)N[C@@H](Cc2c[nH]cn2)C(=O)N[C@@H](CCC(N)=O)C(=O)N[C@H](C(=O)N[C@@H](Cc2ccc(O)cc2)C(=O)N[C@@H](CCC(N)=O)C(=O)N[C@@H](Cc2ccccc2)C(=O)N[C@H](C(=O)N[C@@H](CC(=O)O)C(=O)N[C@@H](CCCCN)C(=O)N[C@@H](Cc2ccccc2)C(=O)N[C@@H](CCCCN)C(=O)N[C@@H](CC(=O)O)C(=O)N[C@@H](CC(N)=O)C(=O)N[C@H](C(=O)N[C@@H](C)C(=O)N2CCC[C@H]2C(=O)N[C@@H](CCCNC(=N)N)C(=O)N[C@@H](CO)C(=O)N[C@@H](CCCCN)C(=O)N[C@H](C(=O)N[C@@H](CO)C(=O)N2CCC[C@H]2C(=O)N[C@@H](CCC(N)=O)C(=O)N[C@H](C(=O)N2C[C@H](O)C[C@H]2C(N)=O)[C@@H](C)O)[C@@H](C)CC)C(C)C)[C@@H](C)O)[C@@H](C)CC)C(C)C)[C@@H](C)O)NC(=O)[C@H]([C@@H](C)O)NC(=O)CNC1=O` [compound 351] (H-GCRIGTCTVQWLAHQIYQFTDKFKDNVAPRSKISPQT[Hyp]-NH2; disulfide 2-7; N-terminus assumed), the EC50 in series [1] was over 5 µM. The “Max ThT signal (%)” value in series [2] was 7.200%.

Regarding `CC[C@H](C)[C@H](NC(=O)[C@H](CCCCN)NC(=O)[C@H](CO)NC(=O)[C@H](CCCNC(=N)N)NC(=O)[C@@H]1CCCN1C(=O)[C@H](C)NC(=O)[C@@H](NC(=O)[C@H](CC(N)=O)NC(=O)[C@H](CC(=O)O)NC(=O)[C@H](CCCCN)NC(=O)[C@H](CC(=O)O)NC(=O)[C@H](CCCCN)NC(=O)[C@H](CC(=O)O)NC(=O)[C@@H](NC(=O)[C@H](Cc1ccccc1)NC(=O)[C@H](CCC(N)=O)NC(=O)[C@H](Cc1ccc(O)cc1)NC(=O)[C@@H](NC(=O)[C@H](CCC(N)=O)NC(=O)[C@H](Cc1c[nH]cn1)NC(=O)[C@H](C)NC(=O)[C@H](CC(C)C)NC(=O)[C@H](Cc1c[nH]c2ccccc12)NC(=O)[C@H](CCC(N)=O)NC(=O)[C@@H](NC(=O)[C@@H](NC(=O)[C@@H]1CSSC[C@H](NC(=O)CN)C(=O)N[C@@H](CCCNC(=N)N)C(=O)N[C@@H]([C@@H](C)O)C(=O)NCC(=O)N[C@@H]([C@@H](C)O)C(=O)N1)[C@@H](C)O)C(C)C)[C@@H](C)CC)[C@@H](C)O)C(C)C)C(=O)NCC(=O)N1CCC[C@H]1C(=O)N[C@@H](CC(N)=O)C(=O)NCC(=O)N1C[C@H](O)C[C@H]1C(N)=O` [compound 355] (H-GCRTGTCTVQWLAHQIYQFTDKDKDNVAPRSKIGPNG[Hyp]-NH2; disulfide 2-7; N-terminus assumed), the EC50 in series [1] was over 5 µM. Further, in series [2], the “Max ThT signal (%)” value was 25.350%.

Turning to `CC[C@H](C)[C@H](NC(=O)[C@H](CC(N)=O)NC(=O)[C@@H](NC(=O)[C@H](CCCNC(=N)N)NC(=O)[C@@H]1CCCN1C(=O)[C@H](C)NC(=O)[C@@H](NC(=O)[C@H](CC(N)=O)NC(=O)[C@H](CC(=O)O)NC(=O)[C@H](CCCCN)NC(=O)[C@H](CC(=O)O)NC(=O)[C@H](CCCCN)NC(=O)[C@H](CC(=O)O)NC(=O)[C@@H](NC(=O)[C@H](Cc1ccccc1)NC(=O)[C@H](CCC(N)=O)NC(=O)[C@H](Cc1ccc(O)cc1)NC(=O)[C@@H](NC(=O)[C@H](CCC(N)=O)NC(=O)[C@H](Cc1c[nH]cn1)NC(=O)[C@H](C)NC(=O)[C@H](CC(C)C)NC(=O)[C@H](Cc1c[nH]c2ccccc12)NC(=O)[C@H](CCC(N)=O)NC(=O)[C@@H](NC(=O)[C@@H](NC(=O)[C@@H]1CSSC[C@H](NC(=O)CN)C(=O)N[C@@H](CCCNC(=N)N)C(=O)N[C@@H]([C@@H](C)O)C(=O)NCC(=O)N[C@@H]([C@@H](C)O)C(=O)N1)[C@@H](C)O)C(C)C)[C@@H](C)CC)[C@@H](C)O)C(C)C)[C@@H](C)O)C(=O)NCC(=O)N1CCC[C@H]1C(=O)N[C@@H](CCC(N)=O)C(=O)NCC(=O)N[C@@H](Cc1ccc(O)cc1)C(N)=O` [compound 356] (H-GCRTGTCTVQWLAHQIYQFTDKDKDNVAPRTNIGPQGY-NH2; disulfide 2-7), in series [1], the EC50 is over 5 µM. Besides, the “Max ThT signal (%)” value in series [2] stood at 1.250%.

On to `CC[C@H](C)[C@H](NC(=O)[C@H](CCCCN)NC(=O)[C@@H](NC(=O)[C@H](CCCNC(=N)N)NC(=O)[C@@H]1CCCN1C(=O)[C@H](C)NC(=O)[C@@H](NC(=O)[C@H](CC(N)=O)NC(=O)[C@H](CC(=O)O)NC(=O)[C@H](CCCCN)NC(=O)[C@H](CC(=O)O)NC(=O)[C@H](CCCCN)NC(=O)[C@H](CC(=O)O)NC(=O)[C@@H](NC(=O)[C@H](Cc1ccccc1)NC(=O)[C@H](CCC(N)=O)NC(=O)[C@H](Cc1ccc(O)cc1)NC(=O)[C@@H](NC(=O)[C@H](CCC(N)=O)NC(=O)[C@H](Cc1c[nH]cn1)NC(=O)[C@H](C)NC(=O)[C@H](CC(C)C)NC(=O)[C@H](Cc1c[nH]c2ccccc12)NC(=O)[C@H](CCC(N)=O)NC(=O)[C@@H](NC(=O)[C@@H](NC(=O)[C@@H]1CSSC[C@H](NC(=O)CN)C(=O)N[C@@H](CCCNC(=N)N)C(=O)N[C@@H]([C@@H](C)O)C(=O)NCC(=O)N[C@@H]([C@@H](C)O)C(=O)N1)[C@@H](C)O)C(C)C)[C@@H](C)CC)[C@@H](C)O)C(C)C)[C@@H](C)O)C(=O)NCC(=O)N1CCC[C@H]1C(=O)N[C@@H](CCC(N)=O)C(=O)NCC(=O)N1C[C@H](O)C[C@H]1C(N)=O` [compound 357] (H-GCRTGTCTVQWLAHQIYQFTDKDKDNVAPRTKIGPQG[Hyp]-NH2; disulfide 2-7; N-terminus assumed), for which the EC50 in series [1] is over 5 µM. Also, the “Max ThT signal (%)” value in series [2] is listed as 19.750%.

With `CC[C@H](C)[C@H](NC(=O)[C@H](CC(N)=O)NC(=O)[C@H](CO)NC(=O)[C@H](CCCNC(=N)N)NC(=O)[C@@H]1CCCN1C(=O)[C@H](C)NC(=O)[C@@H](NC(=O)[C@H](CC(N)=O)NC(=O)[C@H](CC(=O)O)NC(=O)[C@H](CCCCN)NC(=O)[C@H](CC(=O)O)NC(=O)[C@H](CCCCN)NC(=O)[C@H](CC(=O)O)NC(=O)[C@@H](NC(=O)[C@H](Cc1ccccc1)NC(=O)[C@H](CCC(N)=O)NC(=O)[C@H](Cc1ccc(O)cc1)NC(=O)[C@@H](NC(=O)[C@H](CCC(N)=O)NC(=O)[C@H](Cc1c[nH]cn1)NC(=O)[C@H](C)NC(=O)[C@H](CC(C)C)NC(=O)[C@H](Cc1c[nH]c2ccccc12)NC(=O)[C@H](CCC(N)=O)NC(=O)[C@@H](NC(=O)[C@@H](NC(=O)[C@@H]1CSSC[C@H](NC(=O)CN)C(=O)N[C@@H](CCCNC(=N)N)C(=O)N[C@@H]([C@@H](C)O)C(=O)NCC(=O)N[C@@H]([C@@H](C)O)C(=O)N1)[C@@H](C)O)C(C)C)[C@@H](C)CC)[C@@H](C)O)C(C)C)C(=O)NCC(=O)N1CCC[C@H]1C(=O)N[C@@H](CCC(N)=O)C(=O)NCC(=O)N1C[C@H](O)C[C@H]1C(N)=O` [compound 359] (H-GCRTGTCTVQWLAHQIYQFTDKDKDNVAPRSNIGPQG[Hyp]-NH2; disulfide 2-7; N-terminus assumed), in series [1], the EC50 is over 5 µM. For the same compound, the “Max ThT signal (%)” value in series [2] is 20.350%.

Take `CC[C@H](C)[C@H](NC(=O)[C@H](CCC(N)=O)NC(=O)[C@H](Cc1c[nH]cn1)NC(=O)[C@H](C)NC(=O)[C@H](CC(C)C)NC(=O)[C@H](Cc1c[nH]c2ccccc12)NC(=O)[C@H](CCC(N)=O)NC(=O)[C@@H](NC(=O)[C@@H](NC(=O)[C@@H]1CSSC[C@H](NC(=O)CN)C(=O)N[C@@H](CCCNC(=N)N)C(=O)N[C@@H]([C@@H](C)O)C(=O)NCC(=O)N[C@@H]([C@@H](C)O)C(=O)N1)[C@@H](C)O)C(C)C)C(=O)N[C@@H](Cc1ccc(O)cc1)C(=O)N[C@@H](CCC(N)=O)C(=O)N[C@@H](Cc1ccccc1)C(=O)N[C@H](C(=O)N[C@@H](CC(=O)O)C(=O)N[C@@H](CCCCN)C(=O)N[C@@H](CC(=O)O)C(=O)N[C@@H](CCCCN)C(=O)N[C@@H](CC(=O)O)C(=O)N[C@@H](CC(N)=O)C(=O)N[C@H](C(=O)N[C@@H](C)C(=O)N1CCC[C@H]1C(=O)N[C@@H](CCCNC(=N)N)C(=O)N[C@@H](CO)C(=O)N[C@@H](CC(N)=O)C(=O)N[C@H](C(=O)N[C@@H](CO)C(=O)N1CCC[C@H]1C(=O)N[C@@H](CC(N)=O)C(=O)NCC(=O)N1C[C@H](O)C[C@H]1C(N)=O)C(C)C)C(C)C)[C@@H](C)O` [compound 360] (H-GCRTGTCTVQWLAHQIYQFTDKDKDNVAPRSNVSPNG[Hyp]-NH2; disulfide 2-7): the EC50 in series [1] was over 5 µM. The “Max ThT signal (%)” value in series [2] came out at 26.350%.
